Results on 26 molecules are retold here after patent US9925189B2, “Heterocyclic receptor agonists for the treatment of diabetes and metabolic disorders” (CymaBay Therapeutics, Inc., priority 2006, dated 2018).

This test deals with T1, IC-GPCR2 (Homo sapiens, UniProt Q8TDV5, S309L).
T1 construct: expressed in transfected cells
T1 sequence (Q8TDV5 1-335 S309L): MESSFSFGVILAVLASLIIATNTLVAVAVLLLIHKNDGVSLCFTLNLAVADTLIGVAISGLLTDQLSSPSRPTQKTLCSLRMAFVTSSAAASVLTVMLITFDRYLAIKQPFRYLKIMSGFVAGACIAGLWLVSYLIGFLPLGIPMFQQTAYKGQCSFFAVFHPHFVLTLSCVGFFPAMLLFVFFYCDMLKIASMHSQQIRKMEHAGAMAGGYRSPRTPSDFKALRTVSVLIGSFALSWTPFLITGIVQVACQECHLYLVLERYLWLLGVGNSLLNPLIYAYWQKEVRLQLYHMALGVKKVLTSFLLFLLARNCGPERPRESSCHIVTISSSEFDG
The test can be described thus: Stimulation of cAMP in CHO cells stably expressing IC-GPCR2 (HTRF cAMP assay). It counts as cell-based. The conditions noted are these: 30 minutes, IC-GPCR2 stably expressing CHO cells; for activation at 10 µM: 0.5 h, read-out: Activity at 10 uM (% change in FRET signal from DMSO control). The protocol:
This assay was developed using a stable cell line expressing IC-GPCR-2, generated as follows. IC-GPCR2 (SEQ ID NO:1) was cloned into Gateway pDEST 40vector (Invitrogen), using the Gateway cloning system (invitrogen) according to the manufacturer's instructions. A stable cell line was generated by transfecting a 10 cm plate of CHO cells (source) with 8 ug of this construct using Transit-CHO transfection kit (Mirus). CHO cells were plated the day prior to transfection at a density of 3,000,000 cells/plate. Clones were selected using the antibiotic G418 at 500 ug/ml. 23 clones were picked and assayed for the expression of the receptor by measuring changes in intracellular cAMP levels in response to an IC-GPCR2 agonist.
To measure cAMP activity in response to IC-GPCR2 agonist, the clones were plated in 96 well plates at 17500 cells per well. On the day after plating, cells were incubated with the IC-CPCR2 agonist at […] for 30 minutes in Ham's F12 Media (Gibco) with 0.04% DMSO. cAMP was measured using the cAMP dynamic kit from Cis Bio (Bedford, Mass.) according to the manufacturer's instructions. Briefly, cells were lysed, and cAMP levels determined by competitive immunoassay using D2 labeled cAMP, and europium cryptate tagged anti cAMP antibody. When in close proximity, the D2 and europium cryptate undergo fluorescence resonance energy transfer (FRET), which is measured as a fluorescence ratio (665 nm/620 nm). Unlabelled cAMP in the cell lysate competed with the D2 labeled cAMP for the europium crypate labeled antibody. The resulting decrease in FRET signal corresponded to intracellular cAMP levels. Fluorescence was read on a BMG Labtech PHERAstar, software version 1.50.
Compounds were dissolved in 100% DMSO to a concentration of […] to provide stock solutions. To determine activity against IC-GPCR2, compounds were incubated with IC-GPCR2 stably expressing cells (described above), at 6-8 concentrations ranging from 0.00003 to 10 micromolar, in 96 well plates, in 50 ul of Hams F12 media for 30 minutes. Cells were plated at 17500 cells per well 1 day before running the assay. All compounds were also screened against the parental CHO cells. cAMP was measured using the cAMP dynamic kit from Cis Bio (Bedford, Mass.), according to the manufacturer's instructions. Briefly, cells were lysed and cAMP levels determined by competitive immunoassay using D2 labeled cAMP, and europium cryptate tagged anti cAMP antibody. When in close proximity, the D2 and europium cryptate undergo fluorescence resonance energy transfer (FRET), which is measured as a fluorescence ratio (665 nm/620 nm). Unlabelled cAMP in the cell lysate competed with the D2 labeled cAMP for the europium crypate labeled antibody. The resulting decrease in FRET signal corresponded to intracellular cAMP levels.
Activities of compounds disclosed in Table 1 and Table 2 below are expressed as the % change in FRET signal from DMSO control. “*” no activity observed when tested at 10 micromolar but no higher concentrations were tested. NT indicates the compound was not tested at the indicated concentration.
On the technique in general: TR-FRET usually uses a lanthanide donor and a delayed reading to cut background.

As to `CCc1cnc(N2CCC(c3nc(COc4ccc(-n5cnnn5)cc4)cs3)CC2)nc1` [Example 52, 5-Ethyl-2-{4-[4-(4-tetrazol-1-yl-phenoxymethyl)-thiazol-2-yl]-piperidin-1-yl}-pyrimidine], the “Activity at 10 uM (% change in FRET signal from DMSO control)” value is on record as 67%.

With `Brc1cnc(N2CCC(c3nc(COc4ccc(-n5cnnn5)cc4)cs3)CC2)nc1` [Example 54, 5-Bromo-2-{4-[4-(4-tetrazol-1-yl-phenoxymethyl)-thiazol-2-yl]-piperidin-1-yl}-pyrimidine], the activation at 10 µM was found to be 58%. Still for that read-out and setting: then `Fc1cnc(N2CCC(c3nc(COc4ccc(-n5cnnn5)cc4)cs3)CC2)nc1` [Example 55, 5-Fluoro-2-{4-[4-(4-tetrazol-1-yl-phenoxymethyl)-thiazol-2-yl]-piperidin-1-yl}-pyrimidine], with 66%; and `Cc1cnc(N2CCC(c3nc(COc4ccc(-n5cnnn5)cc4)cs3)CC2)nc1Cl` [Example 57, 4-Chloro-5-methyl-2-{4-[4-(4-tetrazol-1-yl-phenoxymethyl)-thiazol-2-yl]-piperidin-1-yl}-pyrimidine], with 7%; and `Clc1ccc(-c2cnc(N3CCC(c4nc(COc5ccc(-n6cnnn6)cc5)cs4)CC3)nc2)cc1` [Example 59], with 70%. In the case of `Clc1cnc(N2CCC(c3nc(COc4ccc(-n5cnnn5)cc4)cs3)CC2)nc1` [Example 60], the activation at 10 µM turned out to be 60%.

Consider `COc1ccc(-c2cnc(N3CCC(c4nc(COc5ccc(-n6cnnn6)cc5)cs4)CC3)nc2)cc1` [Example 66, 5-(4-Methoxy-phenyl)-2-{4-[4-(4-tetrazol-1-yl-phenoxymethyl)-thiazol-2-yl]-piperidin-1-yl}-pyrimidine], for which the activation at 10 µM came to 57%. On the same count and under the same terms, in the case of `COc1cnc(N2CCC(c3nc(COc4ccc(-n5cnnn5)cc4)cs3)CC2)nc1` [Example 68, 5-Methoxy-2-{4-[4-(4-tetrazol-1-yl-phenoxymethyl)-thiazol-2-yl]-piperidin-1-yl}-pyrimidine] it was 53%; in that of `Cc1ccc(N2CCC(c3nc(COc4ccc(-n5cnnn5)cc4)cs3)CC2)nc1` [Example 69, 5′-Methyl-4-[4-(4-tetrazol-1-yl-phenoxymethyl)-thiazol-2-yl]-3,4,5,6-tetrahydro-2H-[1,2′]bipyridinyl], 74%. Take `FC(F)(F)c1ccc(N2CCC(c3nc(COc4ccc(-n5cnnn5)cc4)cs3)CC2)nc1` [Example 71, 4-[4-(4-Tetrazol-1-yl-phenoxymethyl)-thiazol-2-yl]-5′-trifluoromethyl-3,4,5,6-tetrahydro-2H-[1,2′]bipyridinyl]: the activation at 10 µM amounted to 88%. Regarding `O=Cc1ccc(N2CCC(c3nc(COc4ccc(-n5cnnn5)cc4)cs3)CC2)nc1` [Example 72, 4-[4-(4-Tetrazol-1-yl-phenoxymethyl)-thiazol-2-yl]-3,4,5,6-tetrahydro-2H-[1,2′]bipyridinyl-5′-carbaldehyde], the activation at 10 µM was determined as 78%. As to `CS(=O)(=O)c1ccc(OCc2csc(C3CCN(c4nc5ccccc5o4)CC3)n2)cc1` [Example 74, 2-{4-[4-(4-Methanesulfonyl-phenoxymethyl)-thiazol-2-yl]-piperidin-1-yl}-benzooxazole], the activation at 10 µM amounted to 17%. On the same count and under the same terms, then `CCc1cnc(N2CCC(c3nc(COc4ccc(S(C)(=O)=O)cc4F)cs3)CC2)nc1` [Example 76, 5-Ethyl-2-{4-[4-(2-fluoro-4-methanesulfonyl-phenoxymethyl)-thiazol-2-yl]-piperidin-1-yl}-pyrimidine], with 74%.

Turning to `CC(C)(C)OC(=O)N1CCC(C)(c2nc(COc3ccc(S(C)(=O)=O)cc3)cs2)CC1` [Example 78, 4-[4-(4-Methanesulfonyl-phenoxymethyl)-thiazol-2-yl]-4-methyl-piperidine-1-carboxylic acid tert-butyl ester], the activation at 10 µM is 43%. Same read-out and setting: in the case of `CC(C)(C)OC(=O)N1CCC(c2nc(COc3ccc(S(C)(=O)=O)cc3)no2)CC1` [Example 81, 4-[3-(4-Methanesulfonyl-phenoxymethyl)-[1,2,4]oxadiazol-5-yl]-piperidine-1-carboxylic acid tert-butyl ester] it was 59%; in that of `CC(C)(C)OC(=O)N1CCC(c2noc(COCc3ccccc3)n2)CC1` [Example 83, 4-(5-Benzyloxymethyl-[1,2,4]oxadiazol-3-yl)-piperidine-1-carboxylic acid tert-butyl ester], 27%. Take `CCc1cnc(N2CCC(c3nc(COc4ccc(S(C)(=O)=O)cc4)no3)CC2)nc1` [Example 84, 5-Ethyl-2-{4-[3-(4-methanesulfonyl-phenoxymethyl)-[1,2,4]oxadiazol-5-yl]-piperidin-1-yl}-pyrimidine]: the activation at 10 µM worked out at 59%. With `CC(C)(C)OC(=O)N1CCC(O)(c2nc(COc3ccc(S(C)(=O)=O)cc3)cs2)CC1` [Example 86, 4-Hydroxy-4-[4-(4-methanesulfonyl-phenoxymethyl)-thiazol-2-yl]-piperidine-1-carboxylic acid tert-butyl ester], the activation at 10 µM was 49%. On to `CC(C)(C)OC(=O)N1CCC(F)(c2nc(COc3ccc(S(C)(=O)=O)cc3)cs2)CC1` [Example 87, 4-Fluoro-4-[4-(4-methanesulfonyl-phenoxymethyl)-thiazol-2-yl]-piperidine-1-carboxylic acid tert-butyl ester], for which the activation at 10 µM is 62%.

For `CCc1cnc(N2CCC(F)(c3nc(COc4ccc(S(C)(=O)=O)cc4)cs3)CC2)nc1` [Example 88, 5-Ethyl-2-{4-fluoro-4-[4-(4-methanesulfonyl-phenoxymethyl)-thiazol-2-yl]-piperidin-1-yl}-pyrimidine], the activation at 10 µM came out at 49%. In the case of `CCc1cnc(N2CCC(F)(c3ncc(COc4ccc(S(C)(=O)=O)cc4)s3)CC2)nc1` [Example 90, 5-Ethyl-2-{4-fluoro-4-[5-(4-methanesulfonyl-phenoxymethyl)-thiazol-2-yl]-piperidin-1-yl}-pyrimidine], the activation at 10 µM was determined as 64%. On to `CC(C)(C)OC(=O)N1CCN(c2nc(COc3ccc(S(C)(=O)=O)cc3)cs2)CC1` [Example 91, 4-[4-(4-Methanesulfonyl-phenoxymethyl)-thiazol-2-yl]-piperazine-1-carboxylic acid tert-butyl ester], for which the activation at 10 µM came out at 28%. For the molecule `CC(C)CS(=O)(=O)N1CCN(c2nc(COc3ccc(S(C)(=O)=O)cc3)cs2)CC1` [Example 92, 1-[4-(4-Methanesulfonyl-phenoxymethyl)-thiazol-2-yl]-4-(2-methyl-propane-1-sulfonyl)-piperazine], the activation at 10 µM was 14%. On to `CC(C)(C)OC(=O)N1CCC(c2nc(CNc3ccc(F)nc3)cs2)CC1` [Example 94, 4-{4-[(6-Fluoro-pyridin-3-ylamino)-methyl]-thiazol-2-yl}-piperidine-1-carboxylic acid tert-butyl ester], for which the activation at 10 µM amounted to 48%. As for `CC(C)c1noc(N2CCC(c3nc(COc4ccc(-n5cnnn5)cc4)cs3)CC2)n1` [Example 95, 1-(3-Isopropyl-[1,2,4]oxadiazol-5-yl)-4-[4-(4-tetrazol-1-yl-phenoxymethyl)-thiazol-2-yl]-piperidine], the activation at 10 µM is 63%. As to `CCc1noc(N2CCC(c3nc(COc4ccc(-n5cnnn5)cc4)cs3)CC2)n1` [Example 96, 1-(3-Ethyl-[1,2,4]oxadiazol-5-yl)-4-[4-(4-tetrazol-1-yl-phenoxymethyl)-thiazol-2-yl]-piperidine], the activation at 10 µM is 79%.
